According to patent publication US20230158136A1 (priority 2021, published 2023):
Where no end group is shown, it is not given here.

Test: in vitro
Details: human, 293T cells

KKALLAHALHLLALLALHLAHALKKA-NH2 [LAH4] gave a CC50 at 24 h of over 125 µg/mL.
